We go through eleven molecules from ChEMBL document CHEMBL1201862, “PubChem BioAssay data set” (2004).

Some test systems named below: A498; CCRF-CEM; HCT-116; HCT-15; HT-29; Hs-578T; IGROV-1; OVCAR-3; OVCAR-5; RPMI-8226; SF-539; SK-MEL-28; SK-OV-3; SN12C; U-251; UACC-257; UACC-62; UO-31; HCC 2998; SNB-75.
Common to all, as to experiment: NCI-60 cell line screen, 48 h

The structures appear in SMILES notation.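 Growth conditions: 96-well plates. Treatment: test compound, 48 hours, 5 concentrations. Analysis: linear interpolation between bracketing concentrations; unreached endpoints set to highest concentration. GI50 marks 50% less growth.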 The source made the active and inactive calls. Rule as the data show it: active = GI50 up to about 1.1 µM and inactive = higher. A value given as a limit tells only on which side of the number the result lay.

For the molecule `Clc1ccc(/C=c2\nc(-c3ccccc3)n3c2nc2ccccc23)cc1`, the GI50 with A498 was > 100 µM (inactive); in the assay with CCRF-CEM, > 100 µM (inactive); in the assay on HCT-116 it was > 100 µM (inactive); with HCT-15 it was above 100 µM; with HT-29, > 100 µM (inactive); in the assay with Hs-578T, 49.3 µM (inactive). For the same molecule, the GI50 in the assay with IGROV-1 was > 100 µM (inactive); in the assay with OVCAR-3 it was 51.9 µM (inactive); with OVCAR-5, > 100 µM (inactive); with RPMI-8226, > 100 µM (inactive); with SF-539 it was 22.4 µM (inactive); with SK-MEL-28 it was 0.0465 µM (active). Moreover, the GI50 is 43.3 µM (inactive) in the assay with SK-OV-3; > 100 µM (inactive) in the assay with SN12C; 49.1 µM (inactive) in the assay on U-251; > 100 µM (inactive) in the assay on UACC-257; > 100 µM (inactive) in the assay with UACC-62; > 100 µM (inactive) in the assay on UO-31.
For `COC(=O)c1sc(=O)sc1SCc1cccc(CSc2sc(=O)sc2C(=O)OC)c1`, the GI50 in the assay with A498 was 36.1 µM (inactive); with CCRF-CEM it was 50.5 µM (inactive); in the assay with HCC 2998, 53.7 µM (inactive); in the assay with HCT-116, 56.1 µM (inactive); with HCT-15, above 100 µM; with HT-29, > 100 µM (inactive). Moreover, the GI50 is 57.1 µM (inactive) in the assay on Hs-578T; 30.7 µM (inactive) with IGROV-1; 23.9 µM (inactive) in the assay with OVCAR-3; > 100 µM (inactive) in the assay with OVCAR-5; 55.8 µM (inactive) with SK-MEL-28; 22.7 µM (inactive) with SK-OV-3. Moreover, the GI50 was 39.7 µM (inactive) with SN12C; 17.4 µM (inactive) with U-251; 70.5 µM (inactive) with UACC-257; 33.7 µM (inactive) with UACC-62; 64.6 µM (inactive) with UO-31.
As for `O=[N+]([O-])c1ccc(CN(CCCl)OCCCl)cc1`, the GI50 in the assay on CCRF-CEM was 35.5 µM (inactive); with HCC 2998, 84.1 µM (inactive); in the assay on HCT-116 it was 80.7 µM (inactive); with HCT-15, 91 µM; in the assay with HT-29, > 100 µM (inactive); with Hs-578T, > 100 µM (inactive). Besides, the GI50 in the assay on IGROV-1 is 75.9 µM (inactive); with OVCAR-3, > 100 µM (inactive); with OVCAR-5 it was > 100 µM (inactive); in the assay on RPMI-8226, 98.6 µM (inactive); in the assay on SF-539 it was > 100 µM (inactive); in the assay with SK-MEL-28, > 100 µM (inactive). In addition, the GI50 was > 100 µM (inactive) in the assay on SK-OV-3; > 100 µM (inactive) in the assay with SN12C; > 100 µM (inactive) in the assay with SNB-75; > 100 µM (inactive) in the assay on U-251; 70.1 µM (inactive) in the assay on UACC-257; 55.8 µM (inactive) in the assay on UACC-62. For the same molecule, in the assay on UO-31, the GI50 is 37.8 µM (inactive).
On to `O=C(c1ccco1)N(C(=S)OCc1ccccn1)c1ccccc1`, for which the GI50 in the assay with A498 is > 100 µM (inactive); in the assay with CCRF-CEM, 69.8 µM (inactive); in the assay with HCT-116, > 100 µM (inactive); in the assay with HCT-15 it was above 100 µM; with HT-29, > 100 µM (inactive); in the assay with Hs-578T, > 100 µM (inactive). In addition, the GI50 is 50.1 µM (inactive) in the assay with IGROV-1; > 100 µM (inactive) in the assay with OVCAR-3; > 100 µM (inactive) in the assay on OVCAR-5; 49.3 µM (inactive) in the assay on RPMI-8226; 36 µM (inactive) in the assay with SF-539; > 100 µM (inactive) in the assay on SK-MEL-28. The GI50 in the assay with SK-OV-3 was > 100 µM (inactive); in the assay with SN12C, > 100 µM (inactive); in the assay with U-251 it was > 100 µM (inactive); in the assay on UACC-257, > 100 µM (inactive); in the assay with UACC-62, > 100 µM (inactive); in the assay with UO-31, 43.9 µM (inactive).
With `CC(C)=CC(=O)c1[nH]c2ccccc2c1CC(=O)NCCc1cncn1C`, the GI50 in the assay with A498 is 30 µM (inactive); in the assay on CCRF-CEM, 55.2 µM (inactive); in the assay with HCC 2998, 34.6 µM (inactive); in the assay with HCT-116, 67.9 µM (inactive); in the assay with HCT-15, above 100 µM; in the assay on HT-29, 35.7 µM (inactive). Also, the GI50 in the assay with Hs-578T was 99.1 µM (inactive); in the assay on IGROV-1, 47.4 µM (inactive); in the assay with OVCAR-3, 58.1 µM (inactive); in the assay on OVCAR-5, > 100 µM (inactive); in the assay with SF-539, 60.7 µM (inactive); in the assay on SK-MEL-28, > 100 µM (inactive). Moreover, the GI50 with SK-OV-3 was > 100 µM (inactive); in the assay on SN12C, 77.1 µM (inactive); in the assay on SNB-75, 52.4 µM (inactive); with U-251, 74.5 µM (inactive); with UACC-257 it was 52.6 µM (inactive); in the assay on UACC-62 it was 61.9 µM (inactive). In the assay on UO-31, the GI50 was 21.4 µM (inactive).
As to `CS/C(=N\Nc1cnc2ccccc2n1)NS(=O)(=O)c1cc(C)c(Cl)cc1Cl`, the GI50 in the assay with A498 is 43.3 µM (inactive); with CCRF-CEM, > 100 µM (inactive); with HCC 2998, > 100 µM (inactive); with HCT-116 it was > 100 µM (inactive); in the assay on HCT-15, above 100 µM; in the assay with HT-29, > 100 µM (inactive). Further, the GI50 is > 100 µM (inactive) in the assay on Hs-578T; 21.1 µM (inactive) in the assay on IGROV-1; 59.6 µM (inactive) with OVCAR-3; > 100 µM (inactive) with OVCAR-5; > 100 µM (inactive) with SF-539; > 100 µM (inactive) in the assay with SK-MEL-28. In addition, the GI50 is > 100 µM (inactive) in the assay with SK-OV-3; > 100 µM (inactive) with SN12C; 43.2 µM (inactive) with SNB-75; > 100 µM (inactive) in the assay with U-251; > 100 µM (inactive) in the assay on UACC-257; 50.7 µM (inactive) in the assay with UACC-62. The GI50 with UO-31 was 33.9 µM (inactive).
As for `COc1ccc(C(SC2C(O)C(CO)OC2n2ccc(N)nc2=O)(c2ccccc2)c2ccc(OC)cc2)cc1` (stereo unspecified), the GI50 in the assay on CCRF-CEM is 20.2 µM (inactive); in the assay with HCC 2998, 17.1 µM (inactive); with HCT-116, 14.9 µM (inactive); in the assay on HCT-15, 17.8 µM; with HT-29, 16.9 µM (inactive); with Hs-578T it was 18.4 µM (inactive). The GI50 is 21.9 µM (inactive) with IGROV-1; 18.7 µM (inactive) with OVCAR-3; 20.1 µM (inactive) in the assay with OVCAR-5; 17.5 µM (inactive) with RPMI-8226; 18.7 µM (inactive) in the assay with SF-539; 27.4 µM (inactive) in the assay on SK-MEL-28. For the same molecule, the GI50 in the assay with SK-OV-3 is 12.2 µM (inactive); with SN12C, 13.3 µM (inactive); with SNB-75, 16.5 µM (inactive); in the assay on U-251 it was 15.6 µM (inactive); in the assay with UACC-257 it was 18.6 µM (inactive); in the assay with UACC-62 it was 16.1 µM (inactive). In the assay with UO-31, the GI50 was 18.5 µM (inactive).
For the molecule `Cc1cc2c(cc1Cl)SC(c1ccccc1O)NS2(=O)=O` (stereo unspecified), the GI50 in the assay with A498 was > 100 µM (inactive); in the assay with CCRF-CEM, < 0.01 µM (active); in the assay with HCC 2998, 31 µM (inactive); in the assay with HCT-116, 27.5 µM (inactive); with HCT-15 it was 19.4 µM; in the assay on HT-29, 45.4 µM (inactive). Also, the GI50 was 38.5 µM (inactive) with Hs-578T; 42.4 µM (inactive) in the assay with IGROV-1; 21.7 µM (inactive) with OVCAR-3; 40.1 µM (inactive) with OVCAR-5; 48.8 µM (inactive) in the assay with SF-539; 49.4 µM (inactive) in the assay with SK-MEL-28. Moreover, the GI50 in the assay with SK-OV-3 is > 100 µM (inactive); in the assay with SN12C, 41 µM (inactive); in the assay on SNB-75, > 100 µM (inactive); in the assay on U-251, 72.9 µM (inactive); with UACC-257, 53 µM (inactive); in the assay with UACC-62 it was 29.6 µM (inactive). Moreover, in the assay on UO-31, the GI50 was 63.2 µM (inactive).
Turning to `O=C(O)c1cc(NC2=C(Cl)C(=O)c3c(O)ccc(O)c3C2=O)ccc1O`, the GI50 was > 10 µM (inactive) in the assay on A498; > 10 µM (inactive) in the assay on CCRF-CEM; > 10 µM (inactive) with HCC 2998; > 10 µM (inactive) in the assay on HCT-116; above 10 µM with HCT-15; > 10 µM (inactive) in the assay on HT-29. For the same molecule, the GI50 in the assay with Hs-578T, in the assay with IGROV-1, in the assay with OVCAR-3, in the assay on OVCAR-5, in the assay on SF-539 and with SK-MEL-28 was > 10 µM (inactive) in each case. Also, the GI50 with SK-OV-3, in the assay on SN12C, in the assay with SNB-75, in the assay on U-251, in the assay on UACC-257 and with UACC-62 was > 10 µM (inactive) throughout. Moreover, in the assay with UO-31, the GI50 is > 10 µM (inactive).
For the molecule `O=[N+]([O-])c1ccc(C2c3c(O)nc(O)nc3Oc3nc(O)nc(O)c32)cc1`, the GI50 was > 100 µM (inactive) in the assay on A498; 13.8 µM (inactive) in the assay on CCRF-CEM; > 100 µM (inactive) with HCT-116; above 100 µM in the assay on HCT-15; > 100 µM (inactive) in the assay with HT-29; > 100 µM (inactive) in the assay on Hs-578T. Moreover, the GI50 in the assay with IGROV-1 was > 100 µM (inactive); with OVCAR-3, > 100 µM (inactive); with OVCAR-5 it was > 100 µM (inactive); in the assay with RPMI-8226, 28.8 µM (inactive); in the assay with SK-MEL-28, > 100 µM (inactive); with SK-OV-3, > 100 µM (inactive). Also, the GI50 with SN12C is > 100 µM (inactive); with U-251, > 100 µM (inactive); in the assay with UACC-257 it was > 100 µM (inactive); with UACC-62, 95.3 µM (inactive); in the assay with UO-31 it was > 100 µM (inactive).
For the molecule `C[C@H](CC[C@@H](O)C(C)(C)O)[C@H]1CC[C@@]2(C)[C@@H]3CC=C4[C@@H](CC[C@H](O)C4(C)C)[C@]3(C)C(=O)C[C@]12C` [BRYODULCOSIGENIN], the GI50 in the assay on A498 was > 50 µM (inactive); in the assay with CCRF-CEM, 16.5 µM (inactive); in the assay on HCT-116, 22 µM (inactive); in the assay on HCT-15, 19.2 µM; in the assay with HT-29, 10.8 µM (inactive); in the assay with Hs-578T, 45.7 µM (inactive). Moreover, the GI50 in the assay on IGROV-1 is > 50 µM (inactive); with OVCAR-3, > 50 µM (inactive); with OVCAR-5, 16.8 µM (inactive); in the assay on RPMI-8226 it was 13.3 µM (inactive); in the assay on SF-539, > 50 µM (inactive); with SK-MEL-28, 24.2 µM (inactive). Also, the GI50 in the assay on SK-OV-3 was 42.5 µM (inactive); in the assay on SN12C, 28.6 µM (inactive); with U-251, 38.5 µM (inactive); with UACC-257 it was 49 µM (inactive); with UO-31, 34 µM (inactive).
